Measurements from patent publication US6818391B2, “Glutamate transporters” (The Regents of the University of California, priority 2000, dated 2004).
Entries after “also recorded” stand apart in the source; their conditions may differ.

How the values were obtained:
BNPI (VGLUT1) [1] = target: T1, BNPI (VGLUT1) (Rattus norvegicus, UniProt Q62634); assay: acridine orange fluorescence quenching (vesicle acidification) of BNPI-expressing membranes; assay type: biochemical; conditions: for acidification of BNPI-expressing versus control membranes: 90 mM chloride (KCl)
T1 construct: expressed in transfected cells; light membranes prepared from them
T1 sequence (Q62634 1-560): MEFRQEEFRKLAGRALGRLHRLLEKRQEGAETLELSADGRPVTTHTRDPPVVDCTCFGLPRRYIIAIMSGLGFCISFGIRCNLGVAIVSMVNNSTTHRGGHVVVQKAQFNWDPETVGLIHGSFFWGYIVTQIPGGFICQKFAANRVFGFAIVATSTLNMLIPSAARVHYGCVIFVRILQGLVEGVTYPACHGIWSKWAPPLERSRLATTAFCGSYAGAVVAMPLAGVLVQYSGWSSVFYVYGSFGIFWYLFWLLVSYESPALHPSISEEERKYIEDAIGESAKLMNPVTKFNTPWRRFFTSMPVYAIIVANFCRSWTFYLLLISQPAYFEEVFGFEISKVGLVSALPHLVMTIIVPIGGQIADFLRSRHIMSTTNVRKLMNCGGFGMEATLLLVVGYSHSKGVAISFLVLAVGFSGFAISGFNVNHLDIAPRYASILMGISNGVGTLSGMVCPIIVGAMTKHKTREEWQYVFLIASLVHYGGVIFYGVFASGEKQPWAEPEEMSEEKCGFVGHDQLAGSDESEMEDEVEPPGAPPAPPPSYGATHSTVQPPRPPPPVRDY
Experimental: Native synaptic vesicles acidify during glutamate uptake (Maycox et al. (1988) J. Biol. Chem., 263: 15423). Glutamate presumably serves as a counterion for protons and dissipates ΔΨ, enabling the vacuolar H+-ATPase to generate a larger ΔpH, but cotransport of H+ with glutamate remains an alternative possibility. To determine whether acidification also accompanies glutamate transport by BNPI, we used the quenching of acridine orange fluorescence to measure vesicle pH. Membranes (200 μg of protein) were diluted into 2 ml of 0.3 M sucrose and 10 mM tris-Mops (pH 7.4) containing 4 mM MgSO4 and 5 μM acridine orange and incubated at 37° C. with continuous stirring. Fluorescence was monitored with a Hitachi F4500 spectrofluorimeter at an excitation wavelength of 492 nm and emission of 530 nm. Separate measurements were made with at least three different membrane preparations for wild-type and transfected cells; representative tracings are shown in FIG. 5.

BNPI (VGLUT1) [2] = target: T1, BNPI (VGLUT1); assay: 3H-glutamate uptake by membranes from PC12 cells expressing BNPI; assay type: biochemical; conditions: for inhibition of 3H-glutamate uptake by membranes expressing BNPI: 10 mM, uptake at 5 min
Source text: Rather, the type I transporter NaPi-1 transports organic anions, including phenol red and penicillin G, with substantially higher apparent affinity than Pi (Busch et al. (1996) Proc. Natl. Acad. Sci., USA, 93: 5347). Human genetic studies have shown that mutations in another protein closely related to BNPI and NaPi-1 account for disorders of sialic acid storage (Verheijen et al. (1999) Nature Genet. 23: 462). In these conditions, sialic acid accumulates in lysosomes because of a defect in proton-driven export (Renlund et al. (1986) Science 232: 759; Mancini et al. (1989) J. Biol. Chem. 264: 15247; Tietze et al. (1989) J. Biol. Chem. 264: 15316; Mancini et al. (1992) Proc. Natl. Acad. Sci., USA, 89: 6609). […] To determine whether BNPI mediates the transport of glutamate into synaptic vesicles, we transfected the rat BNPI cDNA into rat pheochromocytoma PC12 cells, which lack detectable endogenous BNPI protein. The rat BNPI cDNA was stably expressed in PC12 cells, and immunofluorescence for BNPI was used to identify the most highly expressing cell clones. Membranes were prepared by homogenizing the washed cells in SH buffer [0.32 M sucrose and 10 mM Hepes-KOH (pH 7.4)] containing protease inhibitors and by pelleting the nuclei at 1000 g for 5 min and the heavier membranes at 27,000 g for 35 min. The supernatant containing lighter membranes was then pelleted at 210,000 g for 1 hour and resuspended in SH buffer with protease inhibitors at a final concentration of ˜10 μg protein/μl.
We then prepared a population of light membranes, including synaptic-like microvesicles, from the transfected and untransfected cells (McIntire et al. (1997) Nature 389: 870) and tested their ability to accumulate 3H-glutamate in the presence of 4 mM chloride and ATP, conditions that optimize glutamate accumulation by native synaptic vesicles (Maycox et al. (1988) J. Biol. Chem., 263: 15423; Carlson et al. […] J. Biol. Chem. 264: 7369). To initiate the transport reaction, we added 10 μl of membranes to 190 μl of SH buffer containing 4 mM KCl, 4 mM MgSO4, 4 mM ATP, and 50 μM 3H-glutamate, with other additions noted in the text and figure legends. The reaction mixture was incubated at 29° C. for varying times, and the uptake was terminated by rapid filtration, followed by immediate washes with 6 ml of cold 0.155 M potassium tartrate and 10 mM Hepes (pH 7.4). Background uptake was determined using membranes prepared from untransfected cells that were incubated for the same amount of time at the same temperature. Transport measurements were performed in duplicate with at least two different preparations of membranes. The Km was calculated by averaging the results of two separate determinations.

Structure (SMILES) | acidification of BNPI-expressing versus control membranes (BNPI (VGLUT1) [1]) | acidification of BNPI-expressing versus control membranes (BNPI (VGLUT1) [1]; listed as KCl) | 3H-glutamate uptake by BNPI at non-optimal chloride (BNPI (VGLUT1) [2]; 0 and 25 mM chloride) | acidification (lumenal pH) of membranes expressing BNPI (BNPI (VGLUT1) [1]; 10 mM glutamate, with ATP and 4 mM KCl) | effect on rate of chloride-dependent acidification of BNPI membranes (BNPI (VGLUT1) [1]; 10 mM, KCl 20, 50, 140 mM) | effect on acidification of BNPI-expressing membranes by chloride (BNPI (VGLUT1) [1]; 10 mM, listed as Glutamate) | effect on acidification of BNPI-expressing membranes by chloride (BNPI (VGLUT1) [1]; 10 mM, listed as glutamate) | inhibition of 3H-glutamate uptake by membranes expressing BNPI (BNPI (VGLUT1) [2]) | inhibition of 3H-glutamate uptake by membranes expressing BNPI (BNPI (VGLUT1) [2]; listed as L-glutamate) | Km (BNPI (VGLUT1) [2]; initial rate at 1 min, Lineweaver-Burke, untransfected background subtracted, read-out: Km of glutamate transport by BNPI) [µM]
Cl [chloride] | produces more acidification | considerably greater | much less activity detected |  |  |  |  |  |  | 
N[C@@H](CCC(=O)O)C(=O)O [L-Glutamate] |  |  |  | reduced the lumenal pH; also recorded: acidifies membranes expressing BNPI | reduces the rate of acidification | blocks this chloride conductance; also recorded: reduces the acidification | decreased the acidification produced by chloride | markedly inhibits | inhibited the uptake | ~2000
